Reference: patent US7049342B2, “Substituted phenylpropionic acid derivatives” (Kyorin Pharmaceutical Co., Ltd., priority 2000, dated 2006)

Experiments:
human type PPARα = molecular target: T1, human type PPARα (Homo sapiens, UniProt Q07869); experiment: Test of transcriptional activation on peroxisome proliferator-activated receptor α; type: cell-based; conditions: CHO cells cotransfected with yeast DNA-binding domain/human PPARα ligand-binding domain fusion receptor plasmid, reporter plasmid and Renilla luciferase internal standard; luciferase measured after 24 hours; read-out: Transcription-activating function EC50
T1 construct: expressed in transfected cells; host or cells: CHO cells
T1 sequence (Q07869 239-466 limits assumed): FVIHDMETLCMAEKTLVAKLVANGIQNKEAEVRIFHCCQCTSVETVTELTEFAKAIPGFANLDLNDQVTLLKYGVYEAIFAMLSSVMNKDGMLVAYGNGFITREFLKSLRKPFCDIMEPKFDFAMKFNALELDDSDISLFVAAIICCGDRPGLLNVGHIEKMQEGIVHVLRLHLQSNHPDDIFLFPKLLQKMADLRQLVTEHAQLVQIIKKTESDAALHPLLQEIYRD
Source text: Test of Transcriptional Activation on Peroxisome Proliferator-Activated Receptor α
To CHO cells cultured in a Dulbecco-modified Eagle's medium containing 10% delipid fetal calf serum (FCS/DMEM), receptor plasmid that expresses fused protein of DNA-binding domain being transcription factor of yeast with ligand-binding domain of human type PPARα (Biochemistry, 1993, 32, 5598), its reporter plasmid (STRATAGENE Corp.) and luciferase plasmid of Renilla (Promega Corp.) as internal standard were cotransfected with lipofectamine in the serum-free state. Thereafter, testing compound was added in the 10% SFCS/DMEM and both luciferase activities were measured after 24 hours, which were corrected with internal standard.

SMILES | melting point | EC50 (human type PPARα)
CCC(Cc1ccc(OC)c(CC(=O)Nc2ccc(C(F)(F)F)cc2)c1)C(=O)O (stereo not shown) [Example 88, 2-Ethyl-3-[4-methoxy-3-[[N-[4-(trifluoromethyl)phenyl]carbamoyl]methyl]phenyl]propanoic acid] | 136 to 137 °C | 15 nM
COc1ccc(CCC(=O)O)cc1NC(=O)Cc1ccc(-c2ccccc2)cc1 [Example 44] | 177 °C | 130 nM
COc1ccc(CC(OC)C(=O)O)cc1NC(=O)Cc1ccc(Oc2ccccc2)cc1 (stereo not shown) [Example 70] |  | 160 nM
CCC(Cc1ccc(OC)c(CC(=O)Nc2ccc(C(F)(F)F)cc2)c1)C(=O)O (single isomer, unassigned; (-)) [Example 121 (−), (−)-2-ethyl-3-[4-methoxy-3-[[N-[4-(trifluoromethyl)phenyl]carbamoyl]methyl]-phenyl]propanoic acid] | 121 to 123 °C | 
CCC(Cc1ccc(OC)c(OCCc2ccc(C(F)(F)F)cc2)c1)C(=O)O (stereo not shown) [Example 120, 2-Ethyl-3-[4-methoxy-3-[2-[4-(trifluoromethyl)phenyl]ethoxy]phenyl]propanoic acid] | 64 to 66 °C | 
CCCCC/C=C\C/C=C\C=C\[C@@H](O)C/C=C\CCCC(=O)O [(8S) HETE, reference compound] |  | 1300 nM
CCC(Cc1ccc(OC)c(NC(=O)Cc2ccc(OCc3ccccc3)cc2)c1)C(=O)O (stereo not shown) [Example 46] |  | 50 nM
COc1ccc(CC(OC)C(=O)O)cc1NC(=O)Cc1ccc(C(F)(F)F)cc1 (stereo not shown) [Example 39, 2-Methoxy-3-[4-methoxy-3-[2-[4-(trifluoromethyl)phenyl]acetylamino]phenyl]propanoic acid] | 124 to 125 °C | 
